These results are taken from patent US12473303B2, “4-[[(7-aminopyrazolo[1,5-a]pyrimidin-5-yl)amino methyl]piperidin-3-ol compounds and their therapeutic use” (CARRICK THERAPEUTICS LIMITED, priority 2019, dated 2025).

Like-named read-outs stand apart in the source and are kept apart here.

One assay deals with Human CDK12 wt/CycK (Homo sapiens (Human), UniProt Q9NYV4). As to the kind of experiment: Radiometric protein kinase assay (33PanQinase Activity Assay), CDK12. The format is biochemical. As to conditions: for CDK7/CDK12: ratio greater than 1 indicated selectivity for CDK12. As to the method:
(§1) A radiometric protein kinase assay (^33PanQinase® Activity Assay) was used for measuring the kinase activity of the two protein kinases (CDK12/CDK7). All kinase assays were performed in 96-well FlashPlates™ from PerkinElmer (Boston, MA, USA) in a 50 μL reaction volume.
(§2) The reaction cocktail was pipetted in four steps in the following order: • 20 μL of assay buffer (standard buffer) • 5 μL of ATP solution (in H2O) • 5 μL of test compound (in 10% DMSO) • 10 μL of substrate/10 μL of enzyme solution (premixed)
(§3) The reaction mixture was incubated at 30° C. for 60 min and then stopped by the addition of 2% (v/v) H3PO4. Plates were aspirated and washed two times with 200 μL 0.9% (w/v) NaCl. Incorporation of ^33Pi was determined with a microplate scintillation count (Microbeta, Wallac).
(§4) The fitting method used was a least-squares fit.

The next assay concerns the target Human CDK7/CycH/MAT1 (Homo sapiens (Human), UniProt P50613). As to the kind of experiment: Radiometric protein kinase assay (33PanQinase Activity Assay), CDK7. The format is biochemical. As to conditions: Table 1; ATP 3 μM. The procedure: as §1, §2, §3, §4
The subject of another assay is A673 cells. As to the kind of experiment: Cellular potency in A673 cells. The format is cell-based. The note with it: for IC50: Homo sapiens, A673, Table 3, A673 cells; for Ratio of Biochemical Potency: Cellular Potency: Table 3, ratio >0.9 is an indicator of Cyclin K degradation.
[1] abbreviates: Table 1, ATP 0.3 μM, read-out: CDK12 IC50.
The mark [2] stands for this setting: Table 3, CDK12 kinase activity, read-out: Biochemical Potency IC50.

Chain of Human CDK7/CycH/MAT1 (P50613 whole entry): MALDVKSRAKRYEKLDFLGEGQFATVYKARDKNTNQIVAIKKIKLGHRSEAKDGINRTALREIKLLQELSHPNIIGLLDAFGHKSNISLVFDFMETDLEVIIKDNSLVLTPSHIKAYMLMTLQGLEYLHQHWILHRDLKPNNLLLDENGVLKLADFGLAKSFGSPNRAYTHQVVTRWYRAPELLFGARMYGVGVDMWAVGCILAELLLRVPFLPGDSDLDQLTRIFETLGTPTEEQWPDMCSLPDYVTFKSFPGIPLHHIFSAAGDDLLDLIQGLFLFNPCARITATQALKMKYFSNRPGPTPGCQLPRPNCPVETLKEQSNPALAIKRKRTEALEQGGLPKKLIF
Chain of Human CDK7/CycH/MAT1 (P51946 whole entry partner): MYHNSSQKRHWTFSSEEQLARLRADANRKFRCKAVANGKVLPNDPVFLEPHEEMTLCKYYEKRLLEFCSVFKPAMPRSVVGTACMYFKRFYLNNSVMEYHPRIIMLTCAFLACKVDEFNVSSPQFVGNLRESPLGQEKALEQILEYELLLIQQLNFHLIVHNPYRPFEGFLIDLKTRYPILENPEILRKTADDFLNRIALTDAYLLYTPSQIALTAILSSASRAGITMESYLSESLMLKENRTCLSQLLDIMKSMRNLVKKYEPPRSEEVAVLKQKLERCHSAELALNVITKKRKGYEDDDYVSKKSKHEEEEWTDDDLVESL
Chain of Human CDK7/CycH/MAT1 (P51948 whole entry partner): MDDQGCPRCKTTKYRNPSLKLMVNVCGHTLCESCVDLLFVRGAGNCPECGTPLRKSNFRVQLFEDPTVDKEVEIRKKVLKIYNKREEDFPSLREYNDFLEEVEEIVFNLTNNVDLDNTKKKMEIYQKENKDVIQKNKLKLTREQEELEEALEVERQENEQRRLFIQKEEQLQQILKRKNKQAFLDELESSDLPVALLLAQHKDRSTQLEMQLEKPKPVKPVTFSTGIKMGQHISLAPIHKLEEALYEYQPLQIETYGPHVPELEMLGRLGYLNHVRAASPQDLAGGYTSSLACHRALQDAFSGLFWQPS
Chain of Human CDK12 wt/CycK (Q9NYV4 whole entry): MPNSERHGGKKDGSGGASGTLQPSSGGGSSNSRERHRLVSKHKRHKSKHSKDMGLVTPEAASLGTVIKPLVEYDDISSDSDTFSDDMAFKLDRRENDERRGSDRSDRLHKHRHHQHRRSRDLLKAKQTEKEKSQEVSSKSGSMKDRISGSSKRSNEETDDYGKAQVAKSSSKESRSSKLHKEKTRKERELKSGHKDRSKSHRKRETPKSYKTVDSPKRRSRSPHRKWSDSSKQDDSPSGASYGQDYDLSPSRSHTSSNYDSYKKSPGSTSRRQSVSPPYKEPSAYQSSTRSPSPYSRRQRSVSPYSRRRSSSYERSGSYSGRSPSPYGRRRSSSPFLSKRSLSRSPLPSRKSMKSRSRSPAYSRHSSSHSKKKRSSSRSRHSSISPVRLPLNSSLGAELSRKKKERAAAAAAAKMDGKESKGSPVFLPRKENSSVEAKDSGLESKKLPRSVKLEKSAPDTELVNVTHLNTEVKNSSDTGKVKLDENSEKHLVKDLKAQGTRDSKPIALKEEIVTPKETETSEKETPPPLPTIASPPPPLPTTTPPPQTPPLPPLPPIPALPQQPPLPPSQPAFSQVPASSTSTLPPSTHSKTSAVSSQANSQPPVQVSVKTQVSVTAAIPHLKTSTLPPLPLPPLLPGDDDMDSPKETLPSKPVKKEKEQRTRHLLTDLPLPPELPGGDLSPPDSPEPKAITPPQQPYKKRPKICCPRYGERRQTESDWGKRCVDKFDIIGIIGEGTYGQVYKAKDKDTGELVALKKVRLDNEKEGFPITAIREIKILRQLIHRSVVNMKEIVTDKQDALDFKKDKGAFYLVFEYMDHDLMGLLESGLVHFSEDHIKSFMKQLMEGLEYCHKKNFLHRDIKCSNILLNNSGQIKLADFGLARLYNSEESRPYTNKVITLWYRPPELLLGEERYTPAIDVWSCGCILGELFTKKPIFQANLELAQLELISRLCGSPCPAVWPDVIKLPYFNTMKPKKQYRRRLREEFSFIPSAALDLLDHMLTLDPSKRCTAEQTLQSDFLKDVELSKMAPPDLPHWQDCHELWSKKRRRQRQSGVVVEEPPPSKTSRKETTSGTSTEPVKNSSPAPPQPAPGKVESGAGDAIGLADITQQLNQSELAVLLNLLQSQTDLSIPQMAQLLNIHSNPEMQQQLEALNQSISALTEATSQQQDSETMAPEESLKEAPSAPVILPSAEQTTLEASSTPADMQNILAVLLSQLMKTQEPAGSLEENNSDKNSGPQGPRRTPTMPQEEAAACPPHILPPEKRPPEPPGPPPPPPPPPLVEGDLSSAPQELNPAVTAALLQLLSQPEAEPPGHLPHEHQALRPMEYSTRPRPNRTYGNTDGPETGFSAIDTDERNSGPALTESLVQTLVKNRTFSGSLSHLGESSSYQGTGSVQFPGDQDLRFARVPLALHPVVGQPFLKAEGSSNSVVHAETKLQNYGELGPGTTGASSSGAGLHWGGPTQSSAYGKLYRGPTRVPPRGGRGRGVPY
Chain of Human CDK12 wt/CycK (O75909 whole entry partner): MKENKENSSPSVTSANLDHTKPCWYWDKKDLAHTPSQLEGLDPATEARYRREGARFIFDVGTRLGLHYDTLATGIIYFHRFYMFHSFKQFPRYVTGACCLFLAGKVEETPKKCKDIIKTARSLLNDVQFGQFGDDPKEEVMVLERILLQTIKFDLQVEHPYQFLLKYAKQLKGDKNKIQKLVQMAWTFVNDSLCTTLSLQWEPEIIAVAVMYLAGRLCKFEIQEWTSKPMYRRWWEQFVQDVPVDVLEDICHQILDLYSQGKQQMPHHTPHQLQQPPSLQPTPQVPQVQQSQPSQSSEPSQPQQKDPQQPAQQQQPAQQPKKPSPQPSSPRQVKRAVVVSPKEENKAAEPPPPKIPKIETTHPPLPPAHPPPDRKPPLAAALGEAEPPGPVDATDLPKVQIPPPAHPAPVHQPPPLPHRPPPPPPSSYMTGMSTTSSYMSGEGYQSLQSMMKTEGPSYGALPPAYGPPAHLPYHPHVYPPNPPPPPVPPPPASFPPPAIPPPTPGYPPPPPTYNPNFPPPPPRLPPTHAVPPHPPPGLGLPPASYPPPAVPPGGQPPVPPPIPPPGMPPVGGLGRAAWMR

Consider `Cc1cc(C)n2cc(CNc3cc(NC[C@H]4CCNC[C@@H]4O)nc4c(C5CC5)cnn34)nc2c1` [H-APPAMP-032, (3R,4R)-4-(((3-cyclopropyl-7-(((5,7-dimethylimidazo[1,2-a]pyridin-2-yl)methyl)amino)pyrazolo[1,5-a]pyrimidin-5-yl)amino)methyl)piperidin-3-ol], for which the IC50 on Human CDK12 wt/CycK (setting [1]) amounted to 45 nM; on Human CDK12 wt/CycK (setting [2]), 45 nM; on Human CDK7/CycH/MAT1, 859 nM; in the assay on A673 cells it was 6.1 nM. The CDK7/CDK12 at Human CDK12 wt/CycK (Table 1) amounted to 19.1. Moreover, the “Ratio of Biochemical Potency: Cellular Potency” value (from here on “Ratio of Biochemical Potency”) with A673 cells was 7.4.
`O[C@H]1CNCC[C@@H]1CNc1cc(NCc2cn3cc(C(F)(F)F)cc(Cl)c3n2)n2ncc(C3CC3)c2n1` [H-APPAMP-033, (3R,4R)-4-(((7-(((8-chloro-6-(trifluoromethyl)imidazo[1,2-a]pyridin-2-yl)methyl)amino)-3-cyclopropylpyrazolo[1,5-a]pyrimidin-5-yl)amino)methyl)piperidin-3-ol]: the IC50 on Human CDK12 wt/CycK (setting [1]) came to 62 nM; on Human CDK12 wt/CycK (setting [2]), 62 nM; at Human CDK7/CycH/MAT1 it was 1060 nM; with A673 cells, 5.7 nM. For the same compound, the CDK7/CDK12 at Human CDK12 wt/CycK (Table 1) is recorded as 17.1. The “Ratio of Biochemical Potency” value with A673 cells came out at 11.
With `CCc1cnn2c(NCc3cn4c(C(F)(F)F)cccc4n3)cc(NC[C@H]3CCNC[C@@H]3O)nc12` [H-APPAMP-034, (3R,4R)-4-(((3-ethyl-7-(((5-(trifluoromethyl)imidazo[1,2-a]pyridin-2-yl)methyl)amino)pyrazolo[1,5-a]pyrimidin-5-yl)amino)methyl)piperidin-3-ol], the IC50 worked out at 173 nM on Human CDK12 wt/CycK (setting [1]), 173 nM on Human CDK12 wt/CycK (setting [2]), 152 nM on Human CDK7/CycH/MAT1 and 12.1 nM with A673 cells. Further, the CDK7/CDK12 at Human CDK12 wt/CycK (Table 1) was 0.9. Besides, the “Ratio of Biochemical Potency” value with A673 cells was determined as 14.
As to `O[C@H]1CNCC[C@@H]1CNc1cc(NCc2cn3ccc(C(F)(F)F)cc3n2)n2ncc(C3CC3)c2n1` [H-APPAMP-035, (3R,4R)-4-(((3-cyclopropyl-7-(((7-(trifluoromethyl)imidazo[1,2-a]pyridin-2-yl)methyl)amino)pyrazolo[1,5-a]pyrimidin-5-yl)amino)methyl)piperidin-3-ol], the IC50 was determined as 44 nM on Human CDK12 wt/CycK (setting [1]), 44 nM on Human CDK12 wt/CycK (setting [2]), 1290 nM on Human CDK7/CycH/MAT1 and 17.3 nM in the assay on A673 cells. On Human CDK12 wt/CycK (Table 1), the CDK7/CDK12 is 29.3. Also, the “Ratio of Biochemical Potency” value with A673 cells amounted to 2.5.
In the case of `Cn1c(CNc2cc(NC[C@H]3CCNC[C@@H]3O)nc3c(C4CC4)cnn23)nc2cc(F)c(F)cc21` [H-APPAMP-036, (3R,4R)-4-(((3-cyclopropyl-7-(((5,6-difluoro-1-methyl-1H-benzo[d]imidazol-2-yl)methyl)amino)pyrazolo[1,5-a]pyrimidin-5-yl)amino)methyl)piperidin-3-ol], the IC50 at Human CDK12 wt/CycK (setting [1]) is 287 nM; at Human CDK12 wt/CycK (setting [2]), 287 nM; against Human CDK7/CycH/MAT1, 1150 nM; in the assay with A673 cells it was 10.4 nM. Further, at Human CDK12 wt/CycK (Table 1), the CDK7/CDK12 is recorded as 4.0. Further, the “Ratio of Biochemical Potency” value in the assay on A673 cells stood at 28.
For the compound `O[C@H]1CNCC[C@@H]1CNc1cc(NCc2cn3c(C(F)(F)F)cccc3n2)n2ncc(C3CC3)c2n1` [H-APPAMP-037, (3R,4R)-4-(((3-cyclopropyl-7-(((5-(trifluoromethyl)imidazo[1,2-a]pyridin-2-yl)methyl)amino)pyrazolo[1,5-a]pyrimidin-5-yl)amino)methyl)piperidin-3-ol], the IC50 on Human CDK12 wt/CycK (setting [1]) turned out to be 208 nM; on Human CDK12 wt/CycK (setting [2]), 208 nM; at Human CDK7/CycH/MAT1, 649 nM; with A673 cells it was 18.1 nM. The CDK7/CDK12 at Human CDK12 wt/CycK (Table 1) worked out at 3.1. Also, the “Ratio of Biochemical Potency” value in the assay with A673 cells came out at 11.
For the compound `CCc1cnn2c(NCc3cn4cc(C5CC5)cc(C(F)(F)F)c4n3)cc(NC[C@H]3CCNC[C@@H]3O)nc12` [H-APPAMP-038, (3R,4R)-4-(((7-(((6-cyclopropyl-8-(trifluoromethyl)imidazo[1,2-a]pyridin-2-yl)methyl)amino)-3-ethylpyrazolo[1,5-a]pyrimidin-5-yl)amino)methyl)piperidin-3-ol], the IC50 at Human CDK12 wt/CycK (setting [1]) was determined as 100 nM; at Human CDK12 wt/CycK (setting [2]), 100 nM; against Human CDK7/CycH/MAT1, 762 nM; with A673 cells it was 4.6 nM. For the same compound, on Human CDK12 wt/CycK (Table 1), the CDK7/CDK12 is recorded as 7.6. In the assay with A673 cells, the “Ratio of Biochemical Potency” value stood at 22.
As for `Cc1cc(C(F)(F)F)cc2nc(CNc3cc(NC[C@H]4CCNC[C@@H]4O)nc4c(C5CC5)cnn34)cn12` [H-APPAMP-039, (3R,4R)-4-(((3-cyclopropyl-7-(((5-methyl-7-(trifluoromethyl)imidazo[1,2-a]pyridin-2-yl)methyl)amino)pyrazolo[1,5-a]pyrimidin-5-yl)amino)methyl)piperidin-3-ol], the IC50 stood at 48 nM on Human CDK12 wt/CycK (setting [1]), 48 nM on Human CDK12 wt/CycK (setting [2]), 1830 nM on Human CDK7/CycH/MAT1 and 4 nM with A673 cells. Also, the CDK7/CDK12 on Human CDK12 wt/CycK (Table 1) came to 38.1. For the same compound, in the assay with A673 cells, the “Ratio of Biochemical Potency” value came to 12.
For `Cc1cn2cc(CNc3cc(NC[C@H]4CCNC[C@@H]4O)nc4c(C5CC5)cnn34)nc2cc1C(F)(F)F` [H-APPAMP-040, (3R,4R)-4-(((3-cyclopropyl-7-(((6-methyl-7-(trifluoromethyl)imidazo[1,2-a]pyridin-2-yl)methyl)amino)pyrazolo[1,5-a]pyrimidin-5-yl)amino)methyl)piperidin-3-ol], the IC50 was 48 nM on Human CDK12 wt/CycK (setting [1]), 48 nM on Human CDK12 wt/CycK (setting [2]), 1530 nM against Human CDK7/CycH/MAT1 and 5.4 nM in the assay with A673 cells. Further, at Human CDK12 wt/CycK (Table 1), the CDK7/CDK12 is on record as 31.9. Moreover, in the assay on A673 cells, the “Ratio of Biochemical Potency” value was 8.9.
Take `CC(C)Oc1cccc2nc(CNc3cc(NC[C@H]4CCNC[C@@H]4O)nc4c(C5CC5)cnn34)cn12` [H-APPAMP-041, (3R,4R)-4-(((3-cyclopropyl-7-(((5-isopropoxyimidazo[1,2-a]pyridin-2-yl)methyl)amino)pyrazolo[1,5-a]pyrimidin-5-yl)amino)methyl)piperidin-3-ol]: the IC50 stood at 46 nM at Human CDK12 wt/CycK (setting [1]), 46 nM on Human CDK12 wt/CycK (setting [2]), 650 nM on Human CDK7/CycH/MAT1 and 9.8 nM with A673 cells. For the same compound, the CDK7/CDK12 on Human CDK12 wt/CycK (Table 1) stood at 14.1. In addition, the “Ratio of Biochemical Potency” value with A673 cells was found to be 4.7.
For the compound `O[C@H]1CNCC[C@@H]1CNc1cc(NCc2cn3cc(C4CC4)cc(C(F)(F)F)c3n2)n2ncc(C3CC3)c2n1` [H-APPAMP-042, (3R,4R)-4-(((3-cyclopropyl-7-(((6-cyclopropyl-8-(trifluoromethyl)imidazo[1,2-a]pyridin-2-yl)methyl)amino)pyrazolo[1,5-a]pyrimidin-5-yl)amino)methyl)piperidin-3-ol], the IC50 on Human CDK12 wt/CycK (setting [1]) worked out at 100 nM; at Human CDK12 wt/CycK (setting [2]), 100 nM; at Human CDK7/CycH/MAT1, 974 nM; in the assay on A673 cells it was 30 nM. Moreover, on Human CDK12 wt/CycK (Table 1), the CDK7/CDK12 was 9.7. Further, the “Ratio of Biochemical Potency” value in the assay with A673 cells amounted to 3.3.
